Laboratory results: patent publication US9415018B2, “Methods for improving muscle strength” (Washington University, priority 2012, dated 2016)

Experiments:
[1] = humans; cited from earlier work
[2] = system: mdx mouse diaphragm muscle; assay: Fluorescence staining of nanoparticle and rapamycin deposition in mdx diaphragm; type: in vivo; conditions: mdx mouse treated with rapamycin-loaded nanoparticles
From the text: The nanoparticles were rhodamine-labeled, and the rapamycin was labeled with Cy-7.

distribution of Cy-7 labeled rapamycin in diaphragm muscle [2]: both punctate and diffuse staining
SMILES: CO[C@H]1C[C@@H]2CC[C@@H](C)[C@@](O)(O2)C(=O)C(=O)N2CCCC[C@H]2C(=O)O[C@H]([C@H](C)C[C@@H]2CC[C@@H](O)[C@H](OC)C2)CC(=O)[C@H](C)/C=C(\C)[C@@H](O)[C@@H](OC)C(=O)[C@H](C)C[C@H](C)/C=C/C=C/C=C/1C [rapamycin]
oral absorption [1]: 18%
